# Molecular target: T1, full length human TPH1 (Homo sapiens, UniProt P17752)
# T1 construct: To generate the enzyme, full length human TPH1 is cloned into the plasmid pET20b(+); made in house; host or cells: E. coli
# T1 sequence (P17752 1-444): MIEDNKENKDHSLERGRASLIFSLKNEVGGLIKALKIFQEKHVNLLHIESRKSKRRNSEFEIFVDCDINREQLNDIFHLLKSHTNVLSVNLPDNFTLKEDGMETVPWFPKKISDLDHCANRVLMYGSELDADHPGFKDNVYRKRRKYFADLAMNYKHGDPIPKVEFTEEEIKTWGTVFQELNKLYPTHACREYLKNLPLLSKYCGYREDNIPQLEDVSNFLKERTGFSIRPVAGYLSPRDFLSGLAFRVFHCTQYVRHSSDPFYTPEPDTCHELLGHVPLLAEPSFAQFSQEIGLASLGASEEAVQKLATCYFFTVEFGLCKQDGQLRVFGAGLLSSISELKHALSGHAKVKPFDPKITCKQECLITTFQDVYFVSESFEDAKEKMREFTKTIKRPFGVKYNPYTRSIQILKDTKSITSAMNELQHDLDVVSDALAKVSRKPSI
# Experiment: Biochemical in vitro assay using fluorescence readout (TPH1 enzyme activity)
# Conditions: Table 1, mean where determined several times
# Excerpt: Inhibitory activities on tryptophan hydroxylase 1 have been measured for each example compound using the following procedure:
# Biochemical In Vitro Assay Using Fluorescence Readout
# To generate the enzyme, full length human TPH1 is cloned into the plasmid pET20b(+) (Novagen) and expressed in E. coli. The bacterial cells are ruptured by sonication on ice and the lysate is cleared by centrifugation. The resulting protein in the pellet is re-extracted and TPH1 is purified from the obtained lysate by affinity chromatography using a pterin cosubstrate analog immobilized to the resin of the column. The protein is further purified by size exclusion chromatography to remove protein aggregates. The activity of TPH1 is determined by using a fluorescence assay. The enzyme activity assay is carried out at 15° C. with atmosphere oxygen for the duration of 60 minutes in a volume of 64 μl. The reaction is carried out in a 0.1M Tris-HCl buffer, adjusted to pH 7.6, containing 1 mM DTT, 0.2 mg/ml catalase, 100 μM (±)-6-methyl-5,6,7,8-tetrahydropterine dihydrochloride, 40 μM L-tryptophan, and 40-80 nM of TPH1. The reaction is started by bringing together L-tryptophan with all the other reaction substituents and stopped by quenching with perchloric acid (HClO4). The amount of 5-hydroxy-L-tryptophan produced during the enzymatic reaction is determined by fluorescence readout. Fluorescence, as determined at 540 nm when excited at 300 nm wavelength, increases proportionally to the 5-hydroxy-L-tryptophan formed. Compounds are prepared as 10 mM stock solution in DMSO, then diluted in 384-well plates using DMSO followed by a transfer of the dilutions into the assay plate. Fluorescence is measured for each well and the fluorescence at 540 nm wavelength is compared to the fluorescence of the vehicle in place of compound. Inhibitory activities of example compounds with respect to the TPH1 protein are determined by calculating the IC50 value (the concentration of compound needed to inhibit 50% of the enzyme activity). The calculated IC50 values may fluctuate depending on the daily biochemical assay performance. Fluctuations of this kind are known to those skilled in the art. In the case where IC50 values have been determined several times for the same compound, the mean is given.
row,IC50,Structure (SMILES)
1,0.004 µM,"O=C(COc1ccc(N2CCOCC2)nc1Cl)N1CCc2nc3n(c2C1c1ccc(C2CC2)cc1F)CCOC3 (centres unmarked) [Example 6.2.1, 2-((2-chloro-6-morpholinopyridin-3-yl)oxy)-1-(6-(4-cyclopropyl-2-fluorophenyl)-3,4,8,9-tetrahydro-1H-pyrido[4′,3′:4,5]imidazo[2,1-c][1,4]oxazin-7(6H)-yl)ethanone]"
2,0.016 µM,"CCc1nc(C)ccc1OCC(=O)N1CCc2nc3n(c2C1c1ccc(C2CC2)cc1F)CCN(CC1CC1)C3 (centres unmarked) [Example 5.2.6, 1-(1-(4-cyclopropyl-2-fluorophenyl)-7-(cyclopropyl-methyl)-3,4,6,7,8,9-hexahydropyrido[4′,3′:4,5]imida-zo[1,2-a]pyrazin-2(1H)-yl)-2-((2-ethyl-6-methylpyridin-3-yl)oxy)ethanone]"
3,0.008 µM,"CCc1nc(N2CCCS2(=O)=O)ccc1OCC(=O)N1CCc2nc3n(c2C1c1ccc(Cl)cc1F)CCC3 (centres unmarked) [Example 2.1.3, 1-(1-(4-chloro-2-fluorophenyl)-3,4,7,8-tetrahydro-1H-pyrrolo[2′,1′:2,3]imidazo[4,5-c]pyridin-2(6H)-yl)-2-((6-(1,1-dioxidoisothiazolidin-2-yl)-2-ethylpyridin-3-yl)oxy)ethanone]"
4,0.077 µM,"CC(C)(C)OC(=O)N1CCn2c(nc3c2C(c2ncc(C4CC4)cc2F)N(C(=O)COc2ccc(N4CCOCC4)nc2Cl)CC3)C1 (centres unmarked) [Example 5.4.1, tert-butyl 2-(2-((2-chloro-6-morpholinopyridin-3-yl)oxy)acetyl)-1-(5-cyclopropyl-3-fluoropyridin-2-yl)-1,2,3,4,8,9-hexahydropyrido[4′,3′:4,5]imidazo[1,2-a]pyrazine-7(6H)-carboxylate]"
5,0.008 µM,"CC(=O)N1CCn2c(nc3c2C(c2ncc(Cl)cc2F)N(C(=O)COc2ccc(N4CCOCC4)nc2Cl)CC3)C1 (centres unmarked) [Example 5.9.1, 1-(7-acetyl-1-(5-chloro-3-fluoropyridin-2-yl)-3,4,6,7,8,9-hexahydropyrido[4′,3′:4,5]imidazo[1,2-a]pyrazin-2(1H)-yl)-2-((2-chloro-6-morpholinopyridin-3-yl)oxy)ethanone]"
6,0.028 µM,"CC(=O)N1CCn2c(nc3c2C(c2ccc(C4CC4)cc2F)N(C(=O)COc2cccnc2Cl)CC3)C1 (centres unmarked) [Example 5.2.14, 1-(7-acetyl-1-(4-cyclopropyl-2-fluorophenyl)-3,4,6,7,8,9-hexahydropyrido[4′,3′:4,5]imidazo[1,2-a]pyrazin-2(1H)-yl)-2-((2-chloropyridin-3-yl)oxy)ethanone]"
7,0.005 µM,"CC(=O)N1CCn2c(nc3c2C(c2ccc(C4CC4)cc2F)N(C(=O)COc2ccc(N4CCOCC4)nc2Cl)CC3)C1 (centres unmarked) [Example 5.2.8, 1-(7-acetyl-1-(4-cyclopropyl-2-fluorophenyl)-3,4,6,7,8,9-hexahydropyrido[4′,3′:4,5]imidazo[1,2-a]pyrazin-2(1H)-yl)-2-((2-chloro-6-morpholinopyridin-3-yl)oxy)ethanone]"
8,0.056 µM,"COC(=O)c1ccc([C@@H]2c3c(nc4n3CCCC4)CCN2C(=O)COc2ccc(C(=O)NC3CC3)nc2Cl)c(F)c1 [Example 1.23.2, methyl (R)-4-(2-(2-((2-chloro-6-(cyclopropylcarbamoyl)pyridin-3-yl)oxy)acetyl)-1,2,3,4,6,7,8,9-octahydroimidazo[1,2-a:5,4-c′]dipyridin-1-yl)-3-fluorobenzoate]"
9,0.011 µM,"CC(=O)N1CCn2c(nc3c2C(c2ccc(Cl)cn2)N(C(=O)COc2ccc(N4CCOCC4)nc2Cl)CC3)C1 (centres unmarked) [Example 5.15.1, 1-(7-acetyl-1-(5-chloropyridin-2-yl)-3,4,6,7,8,9-hexahydropyrido[4′,3′:4,5]imidazo[1,2-a]pyrazin-2(1H)-yl)-2-((2-chloro-6-morpholinopyridin-3-yl)oxy)ethanone]"
10,0.052 µM,"Cc1ccc(C2c3c(nc4n3CCNC4)CCN2C(=O)COc2ccc(CN3CCOCC3)cc2Cl)c(F)c1 (centres unmarked) [Example 5.12.2, 2-(2-chloro-4-(morpholinomethyl)phenoxy)-1-(1-(2-fluoro-4-methylphenyl)-3,4,6,7,8,9-hexahydropyrido[4′,3′:4,5]imidazo[1,2-a]pyrazin-2(1H)-yl)ethanone]"

# The next lines start with the molecule.
row,Structure (SMILES),IC50
1,"Cc1nc(C)c(C2c3c(nc4n3CCCC4)CCN2C(=O)COc2ccc(-c3ncco3)nc2Cl)s1 (centres unmarked) [Example 1.10.3, 2-((2-chloro-6-(oxazol-2-yl)pyridin-3-yl)oxy)-1-(1-(2,4-dimethylthiazol-5-yl)-3,4,6,7,8,9-hexahydroimi-dazo[1,2-a:5,4-c′]dipyridin-2(1H)-yl)ethanone]",0.016 µM
2,"Cc1ccc(C2c3c(nc4n3CCCC4)CCN2C(=O)COc2ccc(C(=O)N(C)C3CC3)nc2Cl)c(F)c1 (centres unmarked) [Example 1.2.3, 6-chloro-N-cyclopropyl-5-(2-(1-(2-fluoro-4-methyl-phenyl)-3,4,6,7,8,9-hexahydroimidazo[1,2-a:5,4-c′]dipyridin-2(1H)-yl)-2-oxoethoxy)-N-methylpicolinamide]",0.022 µM
3,"CCc1nc(NS(C)(=O)=O)ncc1OCC(=O)N1CCc2nc3n(c2C1c1ccc(C)c(F)c1F)CCCC3 (centres unmarked) [Example 1.9.9, N-(5-(2-(1-(2,3-difluoro-4-methylphenyl)-3,4,6,7,8,9-hexahydroimidazo[1,2-a:5,4-c′]dipyridin-2(1H)-yl)-2-oxoethoxy)-4-ethylpyrimidin-2-yl)methanesulfonamide]",0.058 µM
4,"CS(=O)(=O)Nc1ccc(OCC(=O)N2CCc3nc4n(c3[C@@H]2c2ccc(Cl)cc2F)CCCC4)c(Cl)n1 [Example 1.1.17, (S)-N-(6-chloro-5-(2-(1-(4-chloro-2-fluorophenyl)-3,4,6,7,8,9-hexahydroimidazo[1,2-a:5,4-c′]dipyridin-2(1H)-yl)-2-oxoethoxy)pyridin-2-yl)methanesulfonamide]",0.023 µM
5,"CCc1nc(NS(C)(=O)=O)ccc1OCC(=O)N1CCc2nc3n(c2C1c1nc(-c2ccccc2)no1)CCCC3 (centres unmarked) [Example 1.17.1, N-(6-ethyl-5-(2-oxo-2-(1-(3-phenyl-1,2,4-oxadiazol-5-yl)-3,4,6,7,8,9-hexahydroimidazo[1,2-a:5,4-c′]dipyridin-2(1H)-yl)ethoxy)pyridin-2-yl)methanesulfonamide]",0.079 µM
6,"Cc1nc(C)c(C2c3c(nc4n3CCCC4)CCN2C(=O)COc2ccc(N3CCN(C)CC3)nc2Cl)s1 (centres unmarked) [Example 1.10.9, 2-((2-chloro-6-(4-methylpiperazin-1-yl)pyridin-3-yl)oxy)-1-(1-(2,4-dimethylthiazol-5-yl)-3,4,6,7,8,9-hexahydroimidazo[1,2-a:5,4-c′]dipyridin-2(1H)-yl)ethanone]",0.017 µM
7,"COc1nc(NS(C)(=O)=O)ccc1OCC(=O)N1CCc2nc3n(c2C1c1ccc(Cl)cc1F)CCCC3 (centres unmarked) [Example 1.1.13, N-(5-(2-(1-(4-chloro-2-fluorophenyl)-3,4,6,7,8,9-hexahydroimidazo[1,2-a:5,4-c′]dipyridin-2(1H)-yl)-2-oxoethoxy)-6-methoxypyridin-2-yl)methanesulfonamide]",0.347 µM
8,"CCN(C)C(=O)c1ccc(OCC(=O)N2CCc3nc4n(c3C2c2ccc(Cl)cc2F)CCCC4)c(Cl)n1 (centres unmarked) [Example 1.1.7, 6-chloro-5-(2-(1-(4-chloro-2-fluorophenyl)-3,4,6,7,8,9-hexahydroimidazo[1,2-a:5,4-c′]dipyridin-2(1H)-yl)-2-oxoethoxy)-N-ethyl-N-methylpicolinamide]",0.025 µM
9,"CCc1nc(NS(C)(=O)=O)ccc1OCC(=O)N1CCc2nc3n(c2C1c1sc(C(=O)N(C)C)cc1F)CCCC3 (centres unmarked) [Example 1.4.2, 5-(2-(2-((2-ethyl-6-(methylsulfonamido)pyridin-3-yl)oxy)acetyl)-1,2,3,4,6,7,8,9-octahydroimidazo[1,2-a:5,4-c′]dipyridin-1-yl)-4-fluoro-N,N-dimethylthiophene-2-carboxamide]",0.038 µM
10,"Cc1nc(C)c(C2c3c(nc4n3CCCC4)CCN2C(=O)COc2ccc(C3CC3)nc2Cl)s1 (centres unmarked) [Example 1.10.8, 2-((2-chloro-6-cyclopropylpyridin-3-yl)oxy)-1-(1-(2,4-dimethylthiazol-5-yl)-3,4,6,7,8,9-hexahydroimi-dazo[1,2-a:5,4-c′]dipyridin-2(1H)-yl)ethanone]",0.033 µM

# From US10189839B2, “Tricyclic imidazole compounds as inhibitors of tryptophan hydroxylase” (ACTELION PHARMACEUTICALS LTD, priority 2013, dated 2019)
